Source: ChEMBL document CHEMBL3108712, “Viniphenol A, a complex resveratrol hexamer from Vitis vinifera stalks: structural elucidation and protective effects against amyloid-β-induced toxicity in PC12 cells” (J Nat Prod, 2014)

Test system: PC-12
Test: Neuroprotective activity against amyloid beta (25 to 35)-induced toxicity in rat PC12 cells assessed as cell viability preincubated for 48 hrs with amyloid beta (25 to 35) followed by addition to cell culture measured after 24 hrs by MTT assay
Type: functional, cell-based

Structure (SMILES): Oc1ccc([C@@H]2c3c(O)cc(O)cc3[C@H]3c4c(cc(O)cc4[C@@H]2[C@@H](c2ccc(O)cc2)[C@@H]2c4cc(O)cc5c4[C@H](c4cc(O)cc(O)c4[C@@H](c4ccc(O)cc4)[C@@H]2c2cc(O)cc4c2[C@H](c2cc(O)cc(O)c2)[C@@H](c2ccc(O)cc2)O4)[C@@H](c2ccc(O)cc2)O5)O[C@@H]3c2ccc(O)cc2)cc1
- Activity: Dose-dependent effect
